# In US6159953A, “Anti-malarial composition and method of use” (Catholic University of America, priority 1992, dated 2000):
# Test system: P. yoelii
# Assay: Anti-malarial activity in P. yoelii-infected mice
# Format: in vivo, P. yoelii in Swiss white mice
# Description: FIG. 4 illustrates the effect of 5-fluoro-orotate treatment on blood parasitemia. Mice infected with P. yoelii on day 0 in experiments 1 and 2 were treated with (A) 0.2 mg/kg 5-fluoro-orotate, (B) 1 mg/kg, or (C) 5 mg/kg every 4 hours for three days. Control mice (.largecircle., .circle-solid., respectively), received no drug. Open symbols represent treatment without uridine (experiment 1: .smallcircle., .quadrature., .diamond., Δ), and filled symbols represent animals also treated with uridine (experiment 2: .circle-solid., .box-solid., .diamond-solid., .tangle-solidup.). Animals were treated with 5-fluoro-orotate on days 3 to 6. Animals were also treated with uridine in experiment 2 on days 3 to 9.
# FIG. 5 illustrates the survival rate of mice infected with P. yoelii and treated with 5-fluoro-orotate, alone or in combination with uridine. Mice were treated with (A) 0.2 mg/kg 5-fluoro-orotate, (B) 1 mg/kg, or (C) 5 mg/kg. Control mice received no 5-fluoro-orotate (.largecircle., .circle-solid., respectively). Open symbols represent treatment without uridine (experiment 1: .largecircle., .quadrature., .diamond., Δ), and closed symbols represent animals also receiving uridine (experiment 2: .circle-solid., .box-solid., .diamond-solid., .tangle-solidup.).
# A second in vivo test system can be used to determine if repeated administration of the pyrimidine analogue would have safe anti-malarial activity. In this test system, groups of animals are infected with malaria parasites. At a time when blood parasitemia is reached, the animals are injected with saline alone (control) or with various concentrations of one or more pyrimidine analogues alone or together with one or more rescuing pyrimidine bases or nucleosides at a single concentration, at intervals, over a period of several days. In order to determine the prophylactic effectiveness of the rescuing pyrimidine base or nucleoside, the animals are pretreated with such a base or nucleoside prior to the administration of the pyrimidine analogue. Anti-malarial activity of the treatments is estimated by determining blood parasitemia on the animals at appropriate times. The safety of the treatments is estimated by monitoring animals for weight loss and diarrhea, as these are early symptoms of pyrimidine analogue toxicity [Houghton, J. A., et al., Cancer Res., 39:2406-13 (1979)].
# Swiss white mice (25-30 g) were divided into groups of five. On day 0, each mouse was infected by intraperitoneal injection of 10^5 erythrocytic forms of P. yoelii. Starting on day 3, when the blood parasitemia had reached between 5 and 12%, the mice were injected intraperitoneally every 4 hours for three consecutive days with 200 μl of various formulations. […]
compound,measurement,setting,value
O=C(O)c1[nH]c(=O)[nH]c(=O)c1F [5-fluoro-orotate],time to return of parasitemia after end of treatment,"0.2 mg/kg, treatment stopped day 6",≤ 24 h
same,transient parasitemia after rechallenge,"10^6 P. yoelii parasites, days 2 to 4, 0.2 mg/kg group",less than 0.05%
same,time to resolution of second surge of parasitemia,"low doses (0.2 and 1 mg/kg), no additional drug",≤ 14 days
